Test results as given in patent publication US20170184604A1, “DD1ALPHA RECEPTOR AND USES THEREOF IN IMMUNE DISORDERS” (THE GENERAL HOSPITAL CORPORATION, priority 2014, published 2017).

System: wt- or DD1α−/− mouse CD4+ T cells
Experiment: Ig fusion protein binding to CD4+ T cells from Wt and DD1α−/− mice
Protocol: FIGS. 6A-6E show physical association of DD1α with PD1 but not with PD-L1. (FIG. 6A) Interaction of DD1α with PD1 or DD1α. […] The bound Ig fusion proteins were detected with anti-Ig-APC. Empty vector (pcDNA3.1)-transfected cells stained with Ig proteins are shown as a negative control (gray filled) and other staining is shown as black open. (FIG. 6B) DD1α binds to both DD1α and PD1 on CD4+ T cells. Purified CD4+ T cells from Wt and DD1α−/− mice were assayed for binding to Ig fused DD1α or PD1 proteins. Cells were incubated with DD1α-Ig (open), PD1-Ig (open), or control Ig proteins (gray filled) and the bound Ig fusion proteins were detected by anti-Ig-APC. […] The bound Ig fusion proteins were detected by anti-Ig-APC. Binding amounts were determined by percentage of APC positive cells compared to control Ig protein-bound cells. (FIG. 6C) Ig-pulldown experiments show DD1α interaction with both DD1α and PD1. […] The bead bound proteins were eluted and determined by western blot analysis using anti-HA antibody (asterisks). […] The bead bound proteins were eluted and detected by western blot analysis with anti-DD1α or anti-PD1 antibody (asterisk). […] The levels of indicated proteins were analyzed by western blot analysis. Total RNAs from control siRNA or p53 siRNA transfected MCF7 cells were assessed for mRNA levels of PD1 or PD-L1 by real-time quantitative PCR. […]

Substance: DD1α-Ig: the extracellular region of DD1α fused with the immunoglobulin G Fc segment
- binding to the surface of DD1α−/− CD4+ T cells compared with wt-CD4+ T cells: significantly lower
